Source: PMC6364417, “Kinase inhibitor library screening identifies synergistic drug combinations effective in sensitive and resistant melanoma cells” (Journal of Experimental & Clinical Cancer Research : CR, 2019)

How the values were obtained:
Experiment in all cases: Kinase inhibitor library screening, PrestoBlue cell viability, 1 or 10 μM, 72 h
[1] = system: 501Mel cells (parental); settings: 501Mel Parental, 72 h, in %
Method in brief: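 Single-point screen at two doses over three days. Parental and BRAF-inhibitor-resistant sublines (XP: Vemurafenib; GP: Dabrafenib) were assessed by PrestoBlue viability, reported relative to untreated cells.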

[2] = system: 501Mel-GP cells (Dabrafenib-resistant); settings: 501Mel GP, 72 h, in %
[3] = system: 501Mel-XP cells (Vemurafenib-resistant); settings: 501Mel XP, 72 h, in %
[4] = system: A375 cells (parental); settings: A375 Parental, 72 h
[5] = system: A375-GP cells (Dabrafenib-resistant); settings: A375 GP, 72 h
[6] = system: A375-XP cells (Vemurafenib-resistant); settings: A375 XP, 72 h
[7] = system: IGR37 cells (parental); settings: IGR37 Parental, 72 h, in %
[8] = system: IGR37-GP cells (Dabrafenib-resistant); settings: IGR37 GP, 72 h
[9] = system: IGR37-XP cells (Vemurafenib-resistant); settings: IGR37 XP, 72 h

| Structure (SMILES) | Cell viability in kinase inhibitor library screening, 501Mel Parental, 1μΜ [1] | Cell viability in kinase inhibitor library screening, 501Mel Parental, 10μΜ ([1]; 10μΜ) | Cell viability in kinase inhibitor library screening, 501Mel GP, 1μΜ ([2]; 1μΜ) | Cell viability in kinase inhibitor library screening, 501Mel GP, 10μΜ ([2]; 10μΜ) | Cell viability in kinase inhibitor library screening, 501Mel XP, 1μΜ ([3]; 1μΜ) | Cell viability in kinase inhibitor library screening, 501Mel XP, 10μΜ ([3]; 10μΜ) | Cell viability in kinase inhibitor library screening, A375 Parental, 10μΜ ([4]; 10μΜ) | Cell viability in kinase inhibitor library screening, A375 Parental, 1μΜ ([4]; 1μΜ) | Cell viability in kinase inhibitor library screening, A375 GP, 1μΜ ([5]; 1μΜ) | Cell viability in kinase inhibitor library screening, A375 GP, 10μΜ ([5]; 10μΜ) | Cell viability in kinase inhibitor library screening, A375 XP, 1μΜ ([6]; 1μΜ) | Cell viability in kinase inhibitor library screening, A375 XP, 10μΜ ([6]; 10μΜ) | Cell viability in kinase inhibitor library screening, IGR37 Parental, 1μΜ ([7]; 1μΜ) | Cell viability in kinase inhibitor library screening, IGR37 Parental, 10μΜ ([7]; 10μΜ) | Cell viability in kinase inhibitor library screening, IGR37 GP, 10μΜ ([8]; 10μΜ) | Cell viability in kinase inhibitor library screening, IGR37 GP, 1μΜ ([8]; 1μΜ, in %) | Cell viability in kinase inhibitor library screening, IGR37 XP, 10μΜ ([9]; 10μΜ) | Cell viability in kinase inhibitor library screening, IGR37 XP, 1μΜ ([9]; 1μΜ, in %) | further results |
| --- | --- | --- | --- | --- | --- | --- | --- | --- | --- | --- | --- | --- | --- | --- | --- | --- | --- | --- | --- |
| COC(=O)Nc1ccc(-c2nc(N3CCOCC3)c3cnn(C4CCN(Cc5cccnc5)CC4)c3n2)cc1 [WYE-687] | 65.3 | 9.6 | 55.7 | 10.7 | 83.5 | 7.5 | 21.5 | 74.1 | 67.7 | 19.9 | 59.8 | 19.2 | 75.9 | 26.2 | 24.9% | 77.7 | 7% | 62.5 |  |
| CNC(=O)Nc1ccc(-c2nc(N3CC4CCC(C3)O4)c3cnn(C4CCC5(CC4)OCCO5)c3n2)cc1 [WYE-125132] | 17.3 | 5.8 | 16.3 | 8.1 | 18.5 | 5.5 | 19.3 | 22.3 | 22.4 | 15.7 | 19.4 | 17.0 | 27.6 | 22.1 | 34% | 43.3 | 12.8% | 30.9 |  |
| C=CC(=O)Nc1cccc(Oc2nc(Nc3ccc(N4CCN(C)CC4)cc3)ncc2Cl)c1 [WZ3146] |  |  |  |  |  |  |  |  |  |  |  |  |  |  |  |  |  |  | cell viability, 501Mel Parental, 10μΜ ([1]; 10μΜ): 1.1; cell viability, 501Mel GP, 1μΜ ([2]; 1μΜ): 102.6; cell viability, 501Mel GP, 10μΜ ([2]; 10μΜ): 53.7; cell viability, 501Mel XP, 1μΜ ([3]; 1μΜ): 78.6; cell viability, 501Mel XP, 10μΜ ([3]; 10μΜ): 0.0384; cell viability, A375 Parental, 1μΜ ([4]; 1μΜ, in %): 87.2; cell viability, A375 Parental, 10μΜ ([4]; 10μΜ, in %): 30.7; cell viability, A375 GP, 1μΜ ([5]; 1μΜ, in %): 82.9; cell viability, A375 GP, 10μΜ ([5]; 10μΜ, in %): 22.9; cell viability, A375 XP, 1μΜ ([6]; 1μΜ, in %): 94.3; cell viability, A375 XP, 10μΜ ([6]; 10μΜ, in %): 20.1; cell viability, IGR37 Parental, 1μΜ ([7]; 1μΜ): 96.7; cell viability, IGR37 Parental, 10μΜ ([7]; 10μΜ): 56.4; cell viability, IGR37 GP, 10μΜ ([8]; 10μΜ): 39%; cell viability, IGR37 GP, 1μΜ ([8]; 1μΜ, in %): 92.8; cell viability, IGR37 XP, 10μΜ ([9]; 10μΜ): 7%; cell viability, IGR37 XP, 1μΜ ([9]; 1μΜ, in %): 73.3 |
